We go through five compounds from patent publication US20250017848A1, “CARRIER OR AUXILIARY MATERIAL OF OPHTHALMIC PREPARATION, PREPARATION METHOD THEREFOR, AND APPLICATION THEREOF” (CHENGDU RUIMU BIOPHARMACEUTICALS CO., LTD., priority 2021, published 2025).

Data set [1] relates to Haemophilus influenza ATCC49247. Briefly: In vitro bacteriostasis test (MIC, broth microdilution). The class given is cell-based. The following applies: read-out: Minimum inhibitory concentration (MIC). Here is the method:
(§1) The in vitro bacteriostasis test (MIC) was carried out on the moxifloxacin eye drop delivery system prepared in the Example. The moxifloxacin technical drug was used as the control, while the moxifloxacin eye drop delivery system prepared in Example 6 was used as the test sample, to prepare a drug sensitive plate, so that the drug sensitive plate contained 7-8 diluted concentrations of moxifloxacin technical drug (the control) and the test sample, which was obtained by dilution in a ratio of 1:2. 25 bacterial strains incubated for 18 h-24 h were chosen using inoculation loop, and transferred into sterile physiological saline to form a bacterial suspension equivalent to 0.5 MCF; the bacterial suspension was added to the liquid drug sensitive media, in which the ratio of the bacterial suspension to the liquid media was 1:200, and mixed well, then 100 μL of diluted bacterial solution was added to each well; the media was incubated at 35° C.±2° C. for 16-20 h; the growth of bacteria in each well was determined by turbidity, and observed from low concentration to high concentration. The minimum drug concentration that could inhibit bacterial growth was the MIC of the drug.

In data set [2] the test system is Enterococcus faecalis ATCC29212. The data set is described as above. It counts as cell-based. Conditions: read-out: Minimum inhibitory concentration (MIC). Here is the method: as §1
Data set [3] concerns Staphylococcus aureus ATCC29213. The data set is described as above. The class given is cell-based. Conditions: read-out: Minimum inhibitory concentration (MIC). Here is the method: as §1
Data set [4] has as its system Escherichia coli ATCC25922. The description is as above. Conditions: read-out: Minimum inhibitory concentration (MIC). It counts as cell-based. The protocol:
as §1

Data set [5] relates to Streptococcus pneumoniae ATCC49619. The data set is described as above. The class given is cell-based. The following applies: read-out: Minimum inhibitory concentration (MIC). Here is the method:
as §1

Data set [6] has as its system Pseudomonas aeruginosa ATCC27853. The data set is described as above. The class given is cell-based. The following applies: read-out: Minimum inhibitory concentration (MIC). Here is the method:
as §1

A further data set deals with Streptococcus pneumoniae. The data set is described as above. The class given is cell-based. The following applies: 3 unnamed strains (one per table line), read-out: Minimum inhibitory concentration (MIC). Here is the method:
as §1

The nature of data set [7]: API concentration in rat vitreous body after eye drops (LC/MS/MS). It counts as in vivo, Sprague Dawley (SD) rats. Conditions: 0.5 h after eye drops, 20 μL/eye; for concentration at 0.5 h: Sprague Dawley, rat, vitreous body, topical, read-out: API concentration in the vitreous body (vitreum) of rats. Here is the method: Unless otherwise stated, the method for verifying the result of delivering medicaments to the posterior segment of the eye was as follows:
Experimental instrument and equipment: High performance liquid chromatography, model: LC-20AD (Shimadzu, Japan); mass spectrometer: model: API4000 triple quadrupole mass spectrometer (Applied Biosystems, USA); chromatographic column: Fortis Pace C18 […], 2.1×30 mm (Fortis, UK).
Rats: Healthy adult Sprague Dawley (SD) rats were divided into a test group and a control group, with 6 eyes in each group. The test group received eye drops of the ophthalmic preparation prepared in the Example of the present invention, while the control group received the suspension of medicament (2 mg) in 5 mL of physiological saline (vortex shaking prior to use), at a dosage of 20μL/eye. 0.5 h or 1 h after administration, the animals were euthanized, and the vitreous bodies were quickly collected. The vitreous samples were homogenized and stored at-80° C. To 10 μL of vitreous homogenate, was added 90 μL of 95% ethanol, and then the solution was mixed under ultrasonic for 2 min, followed by vortex mixing for 1 min, to obtain the vitreous homogenate; to 50 μL of the homogenate, was added 175 μL of methanol, and then the resultant solution was vortex mixed for 3 min, and centrifuged at 4° C. and 12000 rpm for 10 min. The supernatant was filtered using a 0.45 μm needle filter. The filtrate was subjected to LC/MS/MS (Positive ion mode, MRM SCAN) analysis.

Data set [8] concerns human cytomegalovirus strains HCMV-AD169. Briefly: In vitro inhibitory activity against human cytomegalovirus (CPE in MRC-5 cells). It counts as cell-based. The following applies: for CPE of each well: 4 wells. Here is the method: The eye drop delivery systems of ganciclovir prepared in the Examples were tested for its in vitro inhibitory activities against human cytomegalovirus (HCMV).
Human embryo lung fibroblasts (MRC-5) infected with human cytomegalovirus strains HCMV-AD169 were chosen and used in the experiment, and the antiviral activity of ganciclovir was investigated with half effective dose (EC50). Four groups were included in the experiment, that is, the test group of the eye drop delivery systems prepared in the Examples, the test group of ganciclovir technical drug, the negative control group (MRC-5 cells), and the positive control group (MRC-5 cells infected with HCMV-AD169). The samples of both test groups were diluted with the culture media to obtain 6 diluted concentrations: 500 μg/mL, 250 μg/mL, 125 μg/mL, 62.5 μg/mL, 31.25 μg/mL, and 15.63 μg/mL, and 4 wells were set for each diluted concentration. Cytopathic effect (CPE) was used as an indicator: 0 for no cytopathy, 1 for ≤25% cytopathy, 2 for 25%-50% cytopathy, 3 for 50%-75% cytopathy, and 4 for 75%-100% cytopathy. The half effective dose (EC50) was calculated using Reed-Munch method: EC50=10n; n=[(logarithm of the dilution degree corresponding to an efficiency of >50%)+(percentage of >50% efficiency−50%)/(percentage of >50% efficiency−percentage of <50% efficiency)×logarithm of the dilution coefficient.
The experimental procedures were as follows: MRC-5 cells were adjusting to approximate 1.5×10^5/mL, and then added a 96 well plate, 100 μL of culture media for each well. The plate was cultured in a 37° C., 5% CO2 cell incubator, and then the supernatant was discarded after the cells adhered to the wall as a monolayer. Except for the control groups, […] were added to each well of both test groups at a concentration of 100×TC50 (half of the virus infected cells obtained in the pre-experiment) and then incubated for 2 h. The supernatant was discarded. A series of test samples were added at 100 μL/well, and then the plate was further cultivated. The CPE of each well was observed. When the CPE of the positive control group reached more than 90%, the CPE of each well was recorded, and the half effective dose (EC50) was calculated using the Reed Munch method.

In brackets after ≈: the same amount, converted by molar mass. Several values for one entry are separate records, joined by “and”; a condition that tells them apart may be missing. Equal values may be shown once.

As for `COc1c(N2C[C@@H]3CCCN[C@@H]3C2)c(F)cc2c(=O)c(C(=O)O)cn(C3CC3)c12` [Moxifloxacin, moxifloxacin], the MIC was not above 0.032 µg/mL in data set [1]; 0.5 µg/mL (≈ 1.25 µM) in data set [2]; 0.12 µg/mL (≈ 0.299 µM) in data set [3]; 0.06 µg/mL (≈ 0.149 µM) in data set [4]; 0.12 µg/mL (≈ 0.299 µM) in data set [5]; 4 µg/mL (≈ 9.96 µM) in [6]. The MIC in the data set on Streptococcus pneumoniae is 0.25 µg/mL (≈ 0.623 µM).

Regarding `C[C@H]1c2cccc(O)c2C(=O)C2=C(O)[C@]3(O)C(=O)C(C(N)=O)=C(O)[C@@H](N(C)C)[C@@H]3[C@@H](O)[C@@H]21` [doxycycline], the concentration at 0.5 h in [7] is less than 1 ng/g.

`O=C(O)CCCC[C@@H]1CCSS1` (racemic) [lipoic acid]: the “API concentration in the vitreous body (vitreum) of rats” value in data set [7] is less than 1 ng/g.

`C[C@@H]1C[C@H]2[C@@H]3CCC4=CC(=O)C=C[C@]4(C)[C@@]3(F)[C@@H](O)C[C@]2(C)[C@@]1(O)C(=O)CO` [dexamethasone]: the concentration at 0.5 h in [7] is less than 1 ng/g.

As to `Nc1nc(O)c2ncn(COC(CO)CO)c2n1` [Ganciclovir technical drug, ganciclovir], the Effective rate in data set [8] (15.63 μg/mL) is recorded as 21%; in [8] (31.25 μg/mL) it was 35%; in data set [8] (62.5 μg/mL), 64%; in data set [8] (125 μg/mL) it was 77%; in [8] (250 μg/mL), 91%; in data set [8] (500 μg/mL) it was 97%. Moreover, the “CPE of each well” value in data set [8] (15.63 μg/mL) was 4 (4 for 75%-100% cytopathy) and 3 (3 for 50%-75% cytopathy); in data set [8] (31.25 μg/mL), 3 (3 for 50%-75% cytopathy); in data set [8] (62.5 μg/mL), 2 (2 for 25%-50% cytopathy) and 3 (3 for 50%-75% cytopathy); in data set [8] (125 μg/mL), 2 (2 for 25%-50% cytopathy) and 1 (1 for ≤25% cytopathy).
